Results: the supplement of paper PMC10477900
pIC50: −log10 of the molar value. Structures can show the parent of a compound that is named as a salt.

Columns and labels:
HCT116 [1] = details: 72 h
Procedure: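 HCT116 control and MTA1-KO (CRISPR) HCT116 cells were seeded in 384-well plates (800 cells/well), treated 16 h later with 237 metabolism-related anticancer drugs at five doses (10 uM, 2 uM, 400 nM, 80 nM, 16 nM) for 72 h, two replicates; viability by CCK8. Values are % inhibition of viability relative to untreated cells, plus fitted IC50.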

HCT116 [2] = assay: viability inhibition vs untreated; higher = more cytotoxic; details: 72 h

SMILES	pIC50 (HCT116 [1]; genotype: MTA1-KO)	pIC50 (HCT116 [1]; genotype: control)	viability inhibition (HCT116 [2]; genotype: MTA1-KO, 16 nM) [%]	viability inhibition (HCT116 [2]; genotype: MTA1-KO, 80 nM) [%]	viability inhibition (HCT116 [2]; genotype: MTA1-KO, 400 nM) [%]	viability inhibition (HCT116 [2]; genotype: MTA1-KO, 2000 nM) [%]	viability inhibition (HCT116 [2]; genotype: MTA1-KO, 10000 nM) [%]	viability inhibition (HCT116 [2]; genotype: control, 16 nM) [%]	viability inhibition (HCT116 [2]; genotype: control, 80 nM) [%]	viability inhibition (HCT116 [2]; genotype: control, 400 nM) [%]	viability inhibition (HCT116 [2]; genotype: control, 2000 nM) [%]	viability inhibition (HCT116 [2]; genotype: control, 10000 nM) [%]
CNCc1cc(-c2ccccc2F)n(S(=O)(=O)c2cccnc2)c1 [Vonoprazan fumarate]	< 5.00	< 5.00	12	-19.8	-19.3	-21.7	-12.1	-12.5	-10.5	-14.4	-16	11.8
COc1cc(Nc2nc3ccccc3nc2NS(=O)(=O)c2ccc(NC(=O)c3ccc(C)c(OC)c3)cc2)cc(OC)c1 [Voxtalisib Analogue]	< 5.00	< 5.00	-13.9	-7.35	-17	-3.38	24.9	-7.04	-8.31	-4.56	-7.36	5.96
CCn1c(=O)c(-c2ccn[nH]2)cc2c(C)nc(N)nc21 [Voxtalisib]	5.63	5.26	5.96	-3.02	6.24	35.5	72.3	8.11	25.4	16.1	37.2	70.3
COC(=O)Nc1ccc(-c2nc(N3CCOCC3)c3cnn(C4CCN(C(=O)OC)CC4)c3n2)cc1 [WYE354]	5.56	< 5.00	2.45	-4.99	-5.74	4.61	59.8	-11.9	-23.4	-20.1	-21.3	40.4
CCC(=O)Nc1cccc(Oc2nc(Nc3ccc(N4CCN(C)CC4)cc3OC)ncc2Cl)c1 [WZ4003]	< 5.00	< 5.00	-5.75	-20	-8	-5.19	8.72	8.56	-15.4	-4.38	-7.1	12.2
